Laboratory results taken from ChEMBL document CHEMBL1147900, “Immuno-stimulating properties of diosgenyl saponins isolated from Paris polyphylla” (Bioorg Med Chem Lett, 2007).
Activity calls are given as the source filed them. The calls are words filed in the database; no cut-off is given here.

Key:
Assay type in all cases: functional, cell-based
RAW [1] = assay: Induction of respiratory burst in mouse RAW 264.7 cells at 10 nM assessed as superoxide anion production after 2 hrs by NBT test
RAW [2] = assay: Effect on phagocytic activity in mouse RAW 264.7 cells after 24 hrs
RAW [3] = assay: Effect on NO production in mouse RAW 264.7 cells at 100 nM
RAW [4] = assay: Effect on phagocytic activity in mouse RAW 264.7 cells at 10 uM after 24 hrs

Row | Compound | Activity (RAW [1]) | Activity (RAW [2]) | Activity (RAW [3]) | Activity (RAW [4])
1 | C[C@@H]1CC[C@@]2(OC1)O[C@H]1C[C@H]3[C@@H]4CC=C5C[C@@H](O)CC[C@]5(C)[C@H]4CC[C@]3(C)[C@H]1[C@@H]2C | inactive | Active | inactive | 
2 | C[C@H]1CC[C@@]2(OC1)O[C@H]1C[C@H]3[C@@H]4CC=C5C[C@@H](O[C@@H]6O[C@@H](CO)[C@H](O[C@H]7O[C@H](C)[C@@H](O[C@H]8O[C@H](C)[C@@H](O)[C@H](O)[C@@H]8O)[C@H](O)[C@@H]7O)[C@@H](O)[C@@H]6O[C@@H]6O[C@@H](C)[C@@H](O)[C@H](O)[C@@H]6O)CC[C@]5(C)[C@H]4CC[C@]3(C)[C@H]1[C@@H]2C | Active | Active | Active | Active
